The first test concerns the target Fibroblast growth factor receptor 1 (Homo sapiens, UniProt P11362). The experiment in a line: Inhibition of FGFR1 (unknown origin) using KKKSPGEYVNIEFG peptide substrate assessed as incorporation of [32P] into peptide by scintillation counting analysis.
Details: not given
Sequence of Fibroblast growth factor receptor 1 (P11362 whole entry): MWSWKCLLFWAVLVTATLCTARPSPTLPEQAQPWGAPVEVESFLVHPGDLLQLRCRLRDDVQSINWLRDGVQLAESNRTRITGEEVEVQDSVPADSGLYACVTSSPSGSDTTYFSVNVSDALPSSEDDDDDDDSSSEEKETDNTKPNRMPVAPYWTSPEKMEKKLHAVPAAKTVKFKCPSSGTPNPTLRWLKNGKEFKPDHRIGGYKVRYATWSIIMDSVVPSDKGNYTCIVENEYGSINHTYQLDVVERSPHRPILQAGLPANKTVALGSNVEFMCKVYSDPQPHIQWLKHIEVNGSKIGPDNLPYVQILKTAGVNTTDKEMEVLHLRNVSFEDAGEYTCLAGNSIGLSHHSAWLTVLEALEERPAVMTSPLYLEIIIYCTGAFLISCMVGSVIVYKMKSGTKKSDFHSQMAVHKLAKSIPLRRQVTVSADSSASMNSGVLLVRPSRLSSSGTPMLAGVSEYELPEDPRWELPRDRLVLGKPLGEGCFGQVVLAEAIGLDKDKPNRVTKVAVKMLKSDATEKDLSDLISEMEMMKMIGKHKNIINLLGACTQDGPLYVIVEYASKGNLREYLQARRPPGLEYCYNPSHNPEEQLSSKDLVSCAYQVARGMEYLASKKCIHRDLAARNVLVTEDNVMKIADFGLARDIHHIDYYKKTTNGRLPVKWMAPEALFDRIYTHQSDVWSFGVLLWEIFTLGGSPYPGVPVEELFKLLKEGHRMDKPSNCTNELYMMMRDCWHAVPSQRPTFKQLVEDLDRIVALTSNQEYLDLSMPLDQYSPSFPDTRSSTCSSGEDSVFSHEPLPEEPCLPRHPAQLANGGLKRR
A word on the IC50: it is the concentration that gives 50% inhibition. Turning to `Fc1ccc(Nc2ncnc3sc(-c4ccccc4)cc23)cc1`, the IC50 was 4.3 µM.

For `CCOC(=O)c1sc2ncnc(Nc3cccc(O)c3)c2c1C`, the IC50 was determined as 0.5 µM.

Turning to `Fc1ccc(Nc2ncnc3sc4c(c23)CCCC4)cc1`, the IC50 was 3.2 µM.

Regarding `CCOc1ccc(-c2csc3ncnc(Nc4ccc(O)cc4)c23)cc1`, the IC50 was greater than 30 µM.

Consider `CCOC(=O)c1sc2ncnc(Nc3cccc(C(=O)O)c3)c2c1C`, for which the IC50 is greater than 30 µM.

Regarding `Cc1ccc(-c2csc3ncnc(Nc4ccc(F)cc4)c23)cc1`, the IC50 is greater than 30 µM.

Turning to `CCOC(=O)c1sc2ncnc(Nc3ccc(F)cc3)c2c1C`, the IC50 was greater than 30 µM.

In the case of `Fc1ccccc1Nc1ncnc2sc3c(c12)CCCCC3`, the IC50 was 4.3 µM.

Consider `Fc1ccc(Nc2ncnc3scc(-c4ccccc4)c23)cc1`, for which the IC50 amounted to 6.3 µM.

For the molecule `CCOc1ccc(-c2csc3ncnc(Nc4cccc(O)c4)c23)cc1`, the IC50 was determined as 12.5 µM.

In the case of `COc1ccc(Nc2ncnc3scc(-c4ccccc4)c23)cc1`, the IC50 came to 3 µM.

For `Cc1nc(Nc2ccc(O)cc2)c2cc(-c3ccccc3)sc2n1`, the IC50 came out at 5 µM.

For the molecule `Cc1cc2c(Nc3ccc(O)cc3)ncnc2s1`, the IC50 turned out to be 5.6 µM.

On to `Oc1cccc(Nc2ncnc3scc(-c4ccc(Cl)cc4)c23)c1`, for which the IC50 turned out to be 0.5 µM.

As to `COc1cccc(Nc2ncnc3scc(-c4ccccc4)c23)c1`, the IC50 stood at 2.5 µM.

For `Oc1ccc(Nc2ncnc3scc(-c4ccccc4)c23)cc1`, the IC50 stood at 1.66 µM.

`CCOC(=O)c1sc2ncnc(Nc3cccc(OC)c3)c2c1C`: the IC50 was greater than 30 µM.

`Fc1ccc(Nc2ncnc3scc(-c4ccc(Cl)cc4)c23)cc1`: the IC50 is greater than 30 µM.

As to `Fc1ccccc1Nc1ncnc2sc(-c3ccccc3)cc12`, the IC50 was found to be 18.2 µM.

For the molecule `Fc1ccccc1Nc1ncnc2scc(-c3ccccc3)c12`, the IC50 was greater than 30 µM.

`CCOC(=O)c1sc2ncnc(Nc3ccc(OC)cc3)c2c1C`: the IC50 was greater than 30 µM.

Turning to `COc1cccc(Nc2ncnc3scc(-c4ccc(Cl)cc4)c23)c1`, the IC50 was greater than 30 µM.

Regarding `Cc1ccc(-c2csc3ncnc(Nc4ccc(C(=O)O)cc4)c23)cc1`, the IC50 was greater than 30 µM.

With `Oc1ccc(Nc2ncnc3sc(-c4ccccc4)cc23)cc1`, the IC50 is 1.2 µM.

As to `Oc1ccc(Nc2ncnc3scc(-c4ccc(Cl)cc4)c23)cc1`, the IC50 amounted to 3 µM.

With `Fc1ccc(Nc2ncnc3sc4c(c23)CCCCC4)cc1Cl`, the IC50 came to 1.6 µM.

Take `Cc1sc2ncnc(Nc3ccc(O)cc3)c2c1-c1ccccc1`: the 50% inhibitory concentration (IC50) was found to be 1.25 µM.

Regarding `COc1ccc(Nc2ncnc3scc(-c4ccc(C)cc4)c23)cc1`, the IC50 worked out at 5 µM.

As to `Oc1cccc(Nc2ncnc3scc(-c4ccccc4)c23)c1`, the IC50 was 0.18 µM.

As for `Cc1ccc(-c2csc3ncnc(Nc4cccc(O)c4)c23)cc1`, the IC50 is 0.7 µM.

With `Cc1ccc(-c2csc3ncnc(Nc4cccc(C(=O)O)c4)c23)cc1`, the IC50 was 11 µM.

Consider `Oc1cccc(Nc2ncnc3sc(-c4ccccc4)cc23)c1`, for which the IC50 was 0.16 µM.

Test system in the next test: not listed separately
The experiment in a line: Antiproliferative activity against human KG1 cells after 72 hrs by MTT assay. In kind it is functional, cell-based. The settings on record: KG-1, 72 h. In general terms: Tetrazolium dyes change colour on reduction, which living cells bring about.
Turning to `Oc1cccc(Nc2ncnc3scc(-c4ccc(Cl)cc4)c23)c1`, half-maximal inhibition (IC50) was put at 50 µM.

In the case of `Oc1cccc(Nc2ncnc3scc(-c4ccccc4)c23)c1`, inhibition was half-maximal at 26.2 µM (IC50).

Molecule `Cc1ccc(-c2csc3ncnc(Nc4cccc(O)c4)c23)cc1` came in with an IC50 of 33.9 µM.

For the molecule `Oc1cccc(Nc2ncnc3sc(-c4ccccc4)cc23)c1`, the IC50 was 16.2 µM.

The values are drawn from ChEMBL document CHEMBL3400102, “Design, synthesis and biological evaluation of N-phenylthieno[2,3-d]pyrimidin-4-amines as inhibitors of FGFR1” (Bioorg Med Chem, 2015).
